Assay results taken from the CheMixHub ionic liquid set.
Where “and” joins values, the source holds several entries; their conditions need not be identical. Equal values may be shown once.

Experiment: xn = mol fraction of the nth substance listed

CCCCCCCCCCCC[N+](C)(C)Cc1ccccc1.[Cl-] + C[C@H](N)C(=O)O + O
electrical conductivity [S/m], 101 kPa
Conditions | 293.15 K | 298.15 K | 303.15 K | 308.15 K
x2 = 0.0009017, x1 = 0.000273 | 0.0801 | 0.0901 | 0.101 | 0.112
x2 = 0.0009017, x1 = 0.0002923 | 0.0832 | 0.0935 | 0.104 | 0.117
x2 = 0.0009017, x1 = 0.00031 | 0.0859 | 0.0967 | 0.108 | 0.121
x2 = 0.0009017, x1 = 0.0003245 | 0.0882 | 0.0994 | 0.111 | 0.124
x2 = 0.0009018, x1 = 0.0001745 | 0.0636 | 0.0709 | 0.0786 | 0.0867
x2 = 0.0009018, x1 = 0.0002014 | 0.0686 | 0.0767 | 0.0852 | 0.0943
x2 = 0.0009018, x1 = 0.0002282 | 0.0731 | 0.0819 | 0.0911 | 0.101
x2 = 0.0009018, x1 = 0.0002515 | 0.0769 | 0.0862 | 0.096 | 0.107
x2 = 0.0009019, x1 = 5.732e-05 | 0.0227 | 0.0255 | 0.0283 | 0.0312
x2 = 0.0009019, x1 = 7.956e-05 | 0.0312 | 0.0349 | 0.0388 | 0.0427
x2 = 0.0009019, x1 = 0.0001004 | 0.0389 | 0.0437 | 0.0484 | 0.0533
x2 = 0.0009019, x1 = 0.0001231 | 0.0474 | 0.053 | 0.0588 | 0.0647
x2 = 0.0009019, x1 = 0.0001486 | 0.0565 | 0.0633 | 0.0701 | 0.077
x2 = 0.001773, x1 = 8.528e-05 | 0.033 | 0.037 | 0.041 | 0.0452
x2 = 0.001773, x1 = 0.0001054 | 0.0404 | 0.0453 | 0.0502 | 0.0553
x2 = 0.001773, x1 = 0.0001263 | 0.0481 | 0.0538 | 0.0597 | 0.0658
x2 = 0.001773, x1 = 0.00015 | 0.0564 | 0.063 | 0.0698 | 0.077
x2 = 0.001773, x1 = 0.000176 | 0.063 | 0.0702 | 0.0778 | 0.086
x2 = 0.001773, x1 = 0.0002016 | 0.0678 | 0.0756 | 0.084 | 0.0932
x2 = 0.001773, x1 = 0.0002266 | 0.0719 | 0.0805 | 0.0896 | 0.0995
x2 = 0.001773, x1 = 0.0002493 | 0.0756 | 0.0847 | 0.0946 | 0.105
x2 = 0.001773, x1 = 0.0002699 | 0.0789 | 0.0885 | 0.099 | –
x2 = 0.001773, x1 = 0.0002888 | 0.082 | 0.0924 | 0.103 | –
x2 = 0.001773, x1 = 0.0003053 | 0.0849 | 0.0956 | 0.107 | –
x2 = 0.001773, x1 = 0.0003178 | 0.0873 | 0.0979 | 0.11 | –
x2 = 0.001774, x1 = 6.278e-05 | 0.0246 | 0.0276 | 0.0306 | 0.0337

C[N+](C)(CCCS(=O)(=O)O)C1CCCCC1.Cc1ccc(S(=O)(=O)[O-])cc1 + O
101 kPa
Conditions | viscosity [mPa·s]
303.15 K, x1 = 1 | 113700
308.15 K, x1 = 0.06028 | 6.925
308.15 K, x1 = 1 | 56930
313.15 K, x1 = 0.01059 | 1.118
313.15 K, x1 = 0.06028 | 6
318.15 K, x1 = 0.01059 | 1.007
318.15 K, x1 = 0.1459 | 38.93
328.15 K, x1 = 0.01059 | 0.8334
328.15 K, x1 = 0.02771 | 1.636
328.15 K, x1 = 0.06028 | 3.944

CCCC[n+]1ccn(C)c1.[Br-] + NC(N)=O + O
298.15 K, 100 kPa
Conditions | viscosity [mPa·s]
x2 = 0, x3 = 0.9487 | 2.21
x2 = 0.008492, x3 = 0.9402 | 2.29
x2 = 0.01695, x3 = 0.9318 | 2.29
x2 = 0.02496, x3 = 0.9237 | 2.28
x2 = 0.02678, x3 = 0.9219 | 2.36
x2 = 0.03322, x3 = 0.9155 | 2.36
x2 = 0.04109, x3 = 0.9076 | 2.41

CS(C)=O + CC(=O)[O-].CC[NH+](CC)CC
101 kPa, x1 = 1
Conditions | viscosity [mPa·s]
298.15 K | 1.99
303.15 K | 1.79
308.15 K | 1.65

CCCC[n+]1ccn(C)c1.[Br-] + NC(N)=NCCC[C@H](N)C(=O)O + O
Conditions | viscosity [mPa·s]
313.15 K, 101.3 kPa, x2 = 0, x1 = 0.0007203 | 0.674

CCCC[n+]1ccc(C)cc1.O=S(=O)([N-]S(=O)(=O)C(F)(F)F)C(F)(F)F + CCOS(=O)(=O)[O-].CC[n+]1ccn(C)c1
100 kPa
Conditions | viscosity [mPa·s]
293.15 K, x2 = 0.1177 | 86.8
293.15 K, x2 = 0.3341 | 116.8
293.15 K, x2 = 0.558 | 145
303.15 K, x2 = 0.558 | 86.5
303.15 K, x2 = 0.7776 | 89.6
313.15 K, x2 = 0.3341 | 46.2
313.15 K, x2 = 0.6663 | 58.1
313.15 K, x2 = 0.9487 | 53.1
323.15 K, x2 = 0.6663 | 39.8
323.15 K, x2 = 0.7776 | 39.6
333.15 K, x2 = 0.1177 | 18.6
333.15 K, x2 = 0.3341 | 23.1
333.15 K, x2 = 0.558 | 27.4
333.15 K, x2 = 0.6663 | 28.5
343.15 K, x2 = 0.0475 | 13
343.15 K, x2 = 0.1177 | 14
343.15 K, x2 = 0.6663 | 21
343.15 K, x2 = 0.7776 | 21
343.15 K, x2 = 0.9487 | 19.9
353.15 K, x2 = 0.0475 | 10.3
353.15 K, x2 = 0.226 | 12.2

CS(C)=O + CCCC[n+]1ccn(C)c1.O=S(=O)([O-])C(F)(F)F
100 kPa, x2 = 0
Conditions | viscosity [mPa·s]
298.15 K | 2.03
303.15 K | 1.84
308.15 K | 1.67
313.15 K | 1.53
318.15 K | 1.41
323.15 K | 1.3

CS(C)=O + CCCC[n+]1ccn(C)c1.F[B-](F)(F)F
100 kPa, x2 = 0
Conditions | electrical conductivity [S/m] | viscosity
298.15 K | 0.042 | 1.99 mPa·s and 2.012 mPa·s
303.15 K | – | 1.8 mPa·s
308.15 K | – | 1.65 mPa·s
313.15 K | – | 1.54 mPa·s

CCCC[n+]1ccn(C)c1C.NCC(=O)[O-] + O
100 kPa
Conditions | viscosity [mPa·s]
293.15 K, x1 = 0.3904 | 66
298.15 K, x1 = 0.0999 | 13.7
298.15 K, x1 = 0.1982 | 22.2
298.15 K, x1 = 0.3003 | 34.6
298.15 K, x1 = 0.6 | 94
298.15 K, x1 = 0.6999 | 119
298.15 K, x1 = 0.798 | 146
303.15 K, x1 = 0.9001 | 125
308.15 K, x1 = 0.0999 | 7.8
308.15 K, x1 = 0.3003 | 20.2
308.15 K, x1 = 0.3904 | 28.4
308.15 K, x1 = 0.6999 | 65
313.15 K, x1 = 0.3904 | 23.4
313.15 K, x1 = 0.9001 | 71
318.15 K, x1 = 0.6999 | 46.4
318.15 K, x1 = 0.798 | 54

CC[n+]1ccn(C)c1.[Cl-] + CC#N
Conditions | viscosity [mPa·s]
373 K, 100 kPa, x2 = 0.284 | 12

CS(C)=O + Cn1cc[n+](CCCN)c1.F[B-](F)(F)F
Conditions | viscosity [mPa·s]
328.15 K, 101 kPa, x2 = 0 | 1.249

CCCC[n+]1ccn(C)c1.[Br-] + O=C(O)c1cccnc1 + O
viscosity [mPa·s], 100 kPa
Conditions | 293.15 K | 298.15 K | 303.15 K | 308.15 K | 313.15 K | 318.15 K
x2 = 0, x1 = 0.0009002 | 1.033 | 0.918 | 0.823 | 0.753 | 0.676 | 0.619
x2 = 0, x1 = 0.001799 | 1.057 | 0.938 | 0.84 | 0.758 | 0.689 | 0.631
x2 = 0, x1 = 0.002696 | 1.069 | 1 | 0.905 | 0.795 | 0.749 | 0.68
